Experimental findings from ChEMBL document CHEMBL3832034 are described below.

By Cmax is commonly meant the maximum level reached in the sampled fluid or tissue. The term Tmax denotes the time at which the peak concentration occurs. What is called clearance is a measure of how efficiently the substance is removed, as volume per time. High values mean a high capacity for elimination, low ones a low capacity for elimination. In general, half-life refers to how long it takes for the measured level to halve.

Where “and” joins values, the source holds several entries; their conditions need not be identical. Identical values can stand only once.

Type in all cases: ADME, organism-based
In series [1] the test system is Homo sapiens. The experiment in a line: (§1) Pharmacokinetic parameters for Lidocaine, and Prilocaine after topical administration of EMLA cream intact skin on the lateral thighs, vaginal fornices and penile skin of subjects. More on the design: dose 1.5 g, route topical. The conditions noted are these: in vivo, topical_or_ocular; for C / Tmax: route topical.
A short description of series [2]: as §1. Also noted: dose 1.5 g, route topical. Conditions: human, in vivo, topical or ocular, 1.5 g; dosed compound id 50, dosed compound name PRILOCAINE, regimen Single dose, study dosing duration 3 hours, tissue Plasma.
The nature of series [3]: Evaluation of pharmacokinetic parameters for Lidocaine, and Prilocaine following intravenous (IV) administration of Lidocaine or application of a cream. The conditions noted are these: human, dosed compound id 50, dosed compound name PRILOCAINE, tissue Plasma.
Setting [4] is: dose 0.5 to 3.3 g, dosed compound id 50, dosed compound name PRILOCAINE, gender female, regimen Single dose, study dosing duration 10 to 60 minutes, tissue Plasma.

Regarding `CCN(CC)CC(=O)Nc1c(C)cccc1C` [LIDOCAINE], the Cmax in series [1] was 120 ng/mL and 280 ng/mL.

For the compound `CCCNC(C)C(=O)Nc1ccccc1C` (configuration not stated) [PRILOCAINE], the Cmax came to 70 ng/mL in series [2] and 140 ng/mL in series [1] (dosed compound id 50, dosed compound name PRILOCAINE, regimen Single dose, study dosing duration 24 hours, tissue Plasma). In addition, the C fell in the range of 40 to 346 ng/mL in series [1] (setting [4]) and 2.5 to 7 ng/mL in series [1] (dose 0.5 to 3.3 g, dosed compound id 50, dosed compound name PRILOCAINE, gender male, regimen Single dose, study dosing duration 15 minutes, tissue Plasma). The Tmax in series [1] (setting [4]) was 0.35 to 1.58 h; in series [1] (dose 1.5 g, dosed compound id 50, dosed compound name PRILOCAINE, regimen Single dose, study dosing duration 3 hours, tissue Plasma), 4 h; in series [1] (dose 1.5 g, dosed compound id 50, dosed compound name PRILOCAINE, regimen Single dose, study dosing duration 24 hours, tissue Plasma), 10 h. Besides, in series [3] (in vivo, route iv), the clearance was found to be 38 mL/min/kg. Moreover, the half-life in series [3] (in vivo, route iv) was 1.17 h. Also, the Vd in series [3] (in vivo, route iv, read-out: Vss) was determined as 2.6 L/kg. The fraction unbound in series [3] (topical or ocular, route topical, read-out: Protein binding (converted)) was 0.45.
